According to patent US9155784B2, “Anti-TNF-α therapy for the mucopolysaccharidoses and other lysosomal disorders” (Icahn School of Medicine at Mount Sinai, priority 2011, dated 2015):

Columns and labels:
MPS VI rats [1] = experiment: Accelerating rotarod of PPS treated MPS VI rats; type: in vivo, rat
Method: FIG. 9 depicts rotarod analysis of MPS VI rats with and without PPS. Six-month-old MPS VI rats were maintained with or without PPS for 3 months (n=6/group), and prior to sacrifice were analyzed using an accelerating rotarod apparatus. Gray=MPS VI rats on normal water; Blue=MPS VI rats receiving PPS.
FIGS. 12A-12C show results of treatment of MPS VI rats at one month of age. In FIGS. 12A and 12B, one-month old MPS VI rats were maintained for eight months on normal water or with water containing 25 mg/day PPS (n=6/group). Representative images are shown. Arrows indicate ocular porphyrin secretions, wide broad skull and snout and small ears in the untreated, with marked improvement in the treated animal. In FIG. 12C, animals were tested on an accelerating rotarod apparatus. […] In addition, only normal and treated rats were able to remain on the rotating rod at speeds up to 35 RPM (60% of normal).
(§1) Immediately prior to sacrifice, the animals also were studied using an accelerating rotarod apparatus. […] It was hypothesized that this reflects either increased joint mobility and/or reduced inflammation and pain in the treatment group. […] Serum levels of inflammatory marker MIP-1α is shown in FIG. 11A, while levels of marker Rantes is show in FIG. 11B and levels of TNF-α are shown in FIG. 11C.

articular chondrocytes = experiment: Western blotting of articular chondrocytes from PPS treated MPS VI rats; type: in vivo, rat; conditions: western blot, PPS groups 1-3, sacrificed at 9 months
Method: Groups 1, 2 and 3 animals were treated with PPS beginning at 6 months, 1 month and prenatally. They were sacrificed at 9 months and articular chondrocytes were isolated and grown for 3 weeks. They were then analyzed by western blotting. […] ADAMTS-5 is a proteeoglycan-degrading aggrecanase that also is elevated in untreated MPS VI rat chondrocytes, and was reduced in the MPS VI treatment groups.

MPS VI rats [2] = experiment: Spine disease: disc height index from sagittal radiographs, PPS treated MPS VI rats; type: in vivo, rat; conditions: PPS treatment of skeletally mature animals (6 months of age)
Method: FIGS. 14A-14C show an assessment of spine disease in the treated (6 month old) and untreated MPS VI rats.
Lastly, spine disease in the treated (6 month old) and untreated MPS VI rats was assessed. These studies have documented several important and clinically relevant endpoints that can be followed during PPS treatment. Histologically, MPS VI discs had abundant, enlarged vacuolated nuclear and annular cells as well as thickened annulus layers, focal defects in the nucleus pulposus, and increased disc height as compared to control discs (FIG. 14A). […] ADAMTS-5 is a proteoglycan-degrading aggrecanase that also is elevated in untreated MPS VI rat chondrocytes, but was reduced in the MPS VI treatment groups (FIG. 15).

MIP-1α, Rantes, TNF-α = experiment: Serum inflammatory markers by ELISA in PPS treated MPS VI rats; type: in vivo, rat
Method: (§2) FIGS. 10A-10B illustrate immunohistochemical analysis of PPS treated and untreated rats.
FIGS. 11A-11C show serum inflammatory markers in treated and untreated MPS VI rats. Three groups of MPS VI rats were treated with PPS beginning at six months (light gray), one month (dark gray) or prenatally (black). All animals were sacrificed at 9 months of age. The duration of treatment was therefore 3 months, 8 months or 9.75 months, respectively. The serum levels of several inflammatory markers were measured by ELISA assays, and compared to normal (hatched) or untreated MPS VI animals (white). N=6/group. Serum levels of inflammatory marker MIP-1α is shown in FIG. 11A, while levels of marker Rantes is shown in FIG. 11B and levels of TNF-α are shown in FIG. 11C.
as §1

MPS VI rats [3] = experiment: MicroCT of dentition in PPS treated MPS VI rats; type: in vivo, rat; conditions: PPS 25 mg/day, start at 6 months of age, 3 months
Method: FIGS. 8A-8F show microCT images of normal rats (FIGS. 8A, 8B) MPS VI rats with PPS treatment (FIGS. 8E, 8F) and without PPS treatment (FIGS. 8C, 8D) showing dentition changes. MPS VI rats were maintained on normal watering or with water containing 25 mg/day PPS (n=6/group). Animals were 6 months of age when treatment was begun, and treatment was carried out for 3 months. Untreated MPS VI rats have overgrown incisors (box) that leads to abnormal alignment of the teeth compared to normal rats. The mandible and misalignment were corrected by PPS treatment.
Untreated MPS VI rats have overgrown incisors (box) (FIGS. 8C, 8D) that leads to abnormal alignment of the teeth compared to normal rats. The mandible and misalignment were corrected by PPS treatment (FIGS. 8E, 8F).

MPS VI rats [4] = experiment: Tracheas of MPS VI rats treated with PPS; type: in vivo, rat; conditions: all PPS treatment groups (start 6 months, 1 month, prenatally), sacrificed at 9 months
Method: FIG. 13 illustrates tracheas of MPS VI rats treated with PPS. Groups 1, 2 and 3 animals were treated with PPS beginning at 6 months, 1 month, and prenatally. They were sacrificed at 9 months and the tracheas were isolated.

TNF-α = experiment: Immunohistochemical analysis of TNF-α in liver and spleen of PPS treated MPS VI rats; type: in vivo, rat; conditions: PPS start at 6 months, 9-month-old animals, vs untreated
Source text: as §2, §1

[5] = system: Niemann-Pick disease mice (acid sphingomyelinase knock-out); experiment: Rotarod analysis of Niemann-Pick disease mice treated with PPS; type: in vivo, mouse; conditions: 25 mg/kg/day for three months from one month of age; 20 RPM; p<0.01; remained below wild-type
Method: One-month-old Niemann-Pick disease mice (acid sphingomyelinase knock-out) were treated with PPS for three months beginning at one month of age (25 mg/kg/day). They were then analyzed using an accelerating rotarod apparatus set to 20 RPM.

MPS VI rats [6] = experiment: Skull and snout appearance, radiographs and microCT in PPS treated MPS VI rats; type: in vivo, rat
Method: FIGS. 6A-6D show results of MPS VI rats treated with PPS. MPS VI rats were maintained on normal watering (FIG. 6A) or with water containing 25 mg/day PPS (n=6/group) (FIG. 6B). Animals were 6 months of age when treatment began, and treatment was carried out for 3 months. Skull and snout images were taken at the end of treatment. Representative images are shown. Skull length and width measurements also were determined from the radiographs for each of the animals, and the data are shown in the bar graph (FIGS. 6C, 6D). White=normal 9 month old, Gray=MPS VI rats on normal water; Blue=MPS VI rats receiving PPS. *=p<0.01.
FIGS. 7A-7F show skull radiographs (FIGS. 7A, 7B, 7C) and microCT images (FIGS. 7D, 7E, 7F) of normal rats (FIGS. 7A, 7D), MPS VI rats with PPS treatment (FIGS. 7C, 7F), and MPS VI rats without PPS treatment (FIGS. 7B, 7E). MPS VI rats were maintained on normal watering or with water containing 25 mg/day PPS (n=6/group). Animals were 6 months of age when treatment was begun, and treatment was carried out for 3 months. The top images show radiographs (FIGS. 7A, 7B, 7C), and the bottom images microCT images (FIGS. 7D, 7E, 7F). Longer snouts and thinner skulls were found in the MPS VI rats treated with PPS compared to untreated MPS VI. The lines in the radiographs are for reference. The quantitative data shown in FIGS. 6A-6D on skull length and width were measured from these radiographs.
In order to develop “proof-of-principle” data, six MPS VI rats at 6 months of age were treated with PPS for 3 months. 6-month-old MPS VI rats have established bone, cartilage, and inflammatory disease, and the specific goal in this initial study was therefore to evaluate whether PPS could either slow or reverse any of the clinical or pathological findings in MPS animals with advanced disease. […] As illustrated by FIGS. 7A-7F skull radiographs and microCT images were taken of normal rats (FIGS. 7A, 7D), MPS VI rats with PPS treatment (FIGS. 7C, 7F), and MPS VI rats without PPS treatment (FIGS. 7B, 7E). […] The images shown are representative of the general observations on these animals.

[7] = all treatment groups (start 6 months, 1 month or prenatally), sacrificed at 9 months, vs untreated
[8] = PPS 25 mg/day in water, start at 6 months of age, 3 months, vs untreated MPS VI

For Pentosan polysulfate [PPS], the “time on the rotating rod versus untreated” value (MPS VI rats [1]; PPS start at 1 month of age, 8 months, 20 RPM) was “more than twice as long”, the “rotarod performance at speeds up to 35 RPM” value (MPS VI rats [1]; PPS start at 1 month of age, 8 months, untreated unable to remain) was 60 % of normal and the “time on the rotating rod versus untreated” value (MPS VI rats [1]; PPS start at 6 months of age, 3 months, p<0.02) was “more than twice as long”. The “ADAMTS-5 in articular chondrocytes” value (articular chondrocytes) was “reduced”, the “Cox-2 in articular chondrocytes” value (articular chondrocytes) was “reduced to normal” and the “TNF-α in articular chondrocytes” value (articular chondrocytes) was “reduced to normal”. The “p38 in articular chondrocytes” value (articular chondrocytes) was “reduced to normal”, the “disc height index (DHI)” value (MPS VI rats [2]) was “did not influence” and the “serum TNF levels” value (MIP-1α, Rantes, TNF-α; PPS start at 6 months, 9-month-old animals, vs untreated (FIG. 10B)) was “decreased”. For the same substance, the “serum MIP-1α level” value (MIP-1α, Rantes, TNF-α; [7]) was “significantly (<0.001) lower”, the “serum Rantes level” value (MIP-1α, Rantes, TNF-α; [7]) was “significantly (<0.001) lower” and the “serum TNF-α level” value (MIP-1α, Rantes, TNF-α; [7]) was “significantly (<0.001) lower”. For the same substance, the “mandible and misalignment of the teeth” value (MPS VI rats [3]) was “corrected”, the collapsed tracheas (MPS VI rats [4]) was “improved” and the “TNF-α expression in liver and spleen” value (TNF-α) was “decreased”. The “rotarod performance versus untreated NPD mice” value [5] was “significantly better”, the skull length (MPS VI rats [6]; [8]) was “significantly longer” and the skull width (MPS VI rats [6]; [8]) was “thinner”. For the same substance, the snout length (MPS VI rats [6]; [8]) was “significantly longer”, the “facial appearance, skull length, eye and nasal secretions, and motility” value (MPS VI rats [6]; PPS start at 1 month of age, 8 months) was “significant effect” and the ocular porphyrin secretions (MPS VI rats [6]; PPS start at 6 months of age, 3 months, vs untreated MPS VI) was “markedly fewer”.
